This assay has as its target human DGAT2 (hDGAT2) (Homo sapiens (Human), UniProt Q96PD7). Description: DGAT2 Enzymatic Activity Assay. The conditions noted are these: membrane prep of Sf-9 insect cells expressing hDGAT2; 13C18-triolein product by LC/MS/MS. In kind it is biochemical. The essentials: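 Membranes from Sf-9 cells infected with untagged hDGAT2 baculovirus (8 ng/μL) incubated at rt in 100 mM Tris pH 7.0, 20 mM MgCl2, 5% ethanol with 25 μM diolein and 5 μM 13C oleoyl-CoA. 13C18-triolein product quantified by LC/MS/MS against 13C21-triolein internal standard; IC50 by 4-parameter fit.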

Sequence of human DGAT2 (hDGAT2) (Q96PD7 whole entry): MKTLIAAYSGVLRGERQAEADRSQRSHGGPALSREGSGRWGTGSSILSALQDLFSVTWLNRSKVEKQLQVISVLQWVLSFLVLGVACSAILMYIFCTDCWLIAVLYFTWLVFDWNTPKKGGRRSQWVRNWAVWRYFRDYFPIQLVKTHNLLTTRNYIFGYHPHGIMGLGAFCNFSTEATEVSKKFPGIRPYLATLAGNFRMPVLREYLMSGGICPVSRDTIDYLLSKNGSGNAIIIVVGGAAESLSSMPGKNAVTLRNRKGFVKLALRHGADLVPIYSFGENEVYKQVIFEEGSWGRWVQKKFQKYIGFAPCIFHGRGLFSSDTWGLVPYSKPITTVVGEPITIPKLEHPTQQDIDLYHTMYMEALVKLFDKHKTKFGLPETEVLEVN

As a reminder, the IC50 is the concentration that inhibits the measured activity by half. `CC1(NC(=O)c2cnc3c(-c4cccc(OC(F)F)c4)nn(C4CCOCC4)c3c2)CS(=O)(=O)C1` [Example 63, 3-(3-(difluoromethoxy)phenyl)-N-(3-methyl-1,1-dioxidothietan-3-yl)-1-(tetrahydro-2H-pyran-4-yl)-1H-pyrazolo[4,3-b]pyridine-6-carboxamide] had an IC50 of 18 nM. The figure for `C[C@]1(NC(=O)c2cnc3c(-c4cncc(OC(F)F)c4)cn(C4CCOCC4)c3c2)CCS(=O)(=O)C1` [Example 80, (S)-3-(5-(difluoromethoxy)pyridin-3-yl)-N-(3-methyl-1,1-dioxidotetrahydrothiophen-3-yl)-1-(tetrahydro-2H-pyran-4-yl)-1H-pyrrolo[3,2-b]pyridine-6-carboxamide] is 875 nM; for `C[C@]1(NC(=O)c2cc3c(cn2)c(-c2cccc(OC(F)F)c2)cn3-c2ccc(F)cc2)CCS(=O)(=O)C1` [Example 15, (S)-3-(3-(difluoromethoxy)phenyl)-1-(4-fluorophenyl)-N-(3-methyl-1,1-dioxidotetrahydrothiophen-3-yl)-1H-pyrrolo[3,2-c]pyridine-6-carboxamide] it is 23 nM; for `CC(C)Cn1nc(-c2cccc(OC(F)F)c2)c2ncc(C(=O)NC3(C)CS(=O)(=O)C3)cc21` [Example 28, 3-(3-(difluoromethoxy)phenyl)-1-isobutyl-N-(3-methyl-1,1-dioxidothietan-3-yl)-1H-pyrazolo[4,3-b]pyridine-6-carboxamide] it is 29 nM.

As for `CC(C)n1nc(-c2cccc(OC(F)F)c2)c2ccc(C(=O)NC3(C)CS(=O)(=O)C3)c(F)c21` [Example 34, 3-(3-(difluoromethoxy)phenyl)-7-fluoro-1-isopropyl-N-(3-methyl-1,1-dioxidothietan-3-yl)-1H-indazole-6-carboxamide], the IC50 came to 5.2 nM. For `CCOc1ccc(F)c(-c2nn(C(C)C)c3cc(C(=O)NC4(C)CS(=O)(=O)C4)cnc23)c1` [Example 115, 3-(5-ethoxy-2-fluorophenyl)-1-isopropyl-N-(3-methyl-1,1-dioxidothietan-3-yl)-1H-pyrazolo[4,3-b]pyridine-6-carboxamide] the value was 3.3 nM; for `CC(=O)Nc1ccc(-c2nn(C(C)C)c3cc(C(=O)NC4(C)CS(=O)(=O)C4)cnc23)cc1O` [Example 124, 3-(4-acetamido-3-hydroxyphenyl)-1-isopropyl-N-(3-methyl-1,1-dioxidothietan-3-yl)-1H-pyrazolo[4,3-b]pyridine-6-carboxamide], 620 nM; for `Cc1ncc(OC(F)F)cc1-c1nn(C(C)C)c2cc(C(=O)N[C@]3(C)CS(=O)(=O)C[C@H]3O)cnc12` [Example 56, 3-(5-(difluoromethoxy)-2-methylpyridin-3-yl)-N-((3S,4S)-4-hydroxy-3-methyl-1,1-dioxidotetrahydrothiophen-3-yl)-1-isopropyl-1H-pyrazolo[4,3-b]pyridine-6-carboxamide], 209 nM. The figure for `C[C@@]1(NC(=O)c2cnc3c(-c4ccccc4Cl)cn(-c4ccc(F)cc4)c3c2)CCS(=O)(=O)C1` [Example 12, (R)-3-(2-chlorophenyl)-1-(4-fluorophenyl)-N-(3-methyl-1,1-dioxidotetrahydrothiophen-3-yl)-1H-pyrrolo[3,2-b]pyridine-6-carboxamide] is 356 nM; for `CC[C@H](C)n1nc(-c2cc(OC(F)F)ncc2F)c2ncc(C(=O)NC3(C)CCS(=O)(=O)CC3)cc21` [Example 116, (S)-1-(sec-butyl)-3-(2-(difluoromethoxy)-5-fluoropyridin-4-yl)-N-(4-methyl-1,1-dioxidotetrahydro-2H-thiopyran-4-yl)-1H-pyrazolo[4,3-b]pyridine-6-carboxamide] it is 11.5 nM; for `CC(C)n1nc(-c2cccc(OCC(F)F)c2)c2ncc(C(=O)NC3(C)CS(=O)(=O)C3)cc21` [Example 94, 3-[3-(2,2-difluoroethoxy)phenyl]-1-isopropyl-N-(3-methyl-1,1-dioxo-thietan-3-yl)pyrazolo[4,3-b]pyridine-6-carboxamide] it is 7 nM. In the case of `CC(C)NC(=O)c1cnc2c(-c3cccc(OC(F)F)c3)cn(-c3ncc(F)cn3)c2c1` [Example 16, 3-(3-(difluoromethoxy)phenyl)-1-(5-fluoropyrirnidin-2-yl)-N-isopropyl-1H-pyrrolo[3,2-b]pyridine-6-carboxamide], the concentration for half-maximal inhibition (IC50) was determined as 209 nM.

`CC(C)n1nc(-c2ccnc(OC(F)F)c2)c2ncc(C(=O)NC3(C)CS(=O)(=O)C3)cc21` [Example 100, 3-[2-(difluoromethoxy)-4-pyridyl]-1-isopropyl-N-(3-methyl-1,1-dioxo-thietan-3-yl)pyrazolo[4,3-b]pyridine-6-carboxamide] displayed an IC50 of 139 nM. For `CC(C)n1nc(-c2cc(OCC(F)(F)F)ncc2F)c2ncc(C(=O)NC3(C)CS(=O)(=O)C3)cc21` [Example 122, 3-(5-fluoro-2-(2,2,2-trifluoroethoxy)pyridin-4-yl)-1-isopropyl-N-(3-methyl-1,1-dioxidothietan-3-yl)-1H-pyrazolo[4,3-b]pyridine-6-carboxamide] the value was 7.7 nM. `CC(C)n1nc(-c2cc(OC(F)(F)F)ccc2F)c2ncc(C(=O)NC3(C)CCS(=O)(=O)CC3)cc21` [Example 118, 3-(2-fluoro-5-(trifluoromethoxy)phenyl)-1-isopropyl-N-(4-methyl-1,1-dioxidotetrahydro-2H-thiopyran-4-yl)-1H-pyrazolo[4,3-b]pyridine-6-carboxamide] gave an IC50 of 20 nM. For `CC1(NC(=O)c2cnc3c(-c4cccc(OC(F)F)c4)nn(CC4CCOCC4)c3c2)CS(=O)(=O)C1` [Example 69, 3-(3-(difluoromethoxy)phenyl)-N-(3-methyl-1,1-dioxidothietan-3-yl)-1-((tetrahydro-2H-pyran-4-yl)methyl)-1H-pyrazolo[4,3-b]pyridine-6-carboxamide] the value was 59 nM; for `CC(C)n1nc(-c2cncc(C3CC3)c2)c2ncc(C(=O)NC3(C)CS(=O)(=O)C3)cc21` [Example 101, 3-(5-cyclopropyl-3-pyridyl)-1-isopropyl-N-(3-methyl-1,1-dioxo-thietan-3-yl)pyrazolo[4,3-b]pyridine-6-carboxamide], 85 nM; for `CC(C)n1nc(-c2cccc(OC(F)F)c2)c2ncc(C(=O)N[C@@H]3CCC[C@H]3N3CCOCC3)cc21` [Example 41, 3-[3-(difluoromethoxy)phenyl]-1-isopropyl-N-[(1R,2R)-2-morpholinocyclopentyl]pyrazolo[4,3-b]pyridine-6-carboxamide], 72 nM. For `C[C@]1(NC(=O)c2cc3c(cn2)c(-c2cccc(OC(F)F)c2)nn3-c2ccc(F)cc2)CCS(=O)(=O)C1` [Example 5, (S)-3-(3-(difluoromethoxy)phenyl)-1-(4-fluorophenyl)-N-(3-methyl-1,1-dioxidotetrahydrothiophen-3-yl)-1H-pyrazolo[4,3-c]pyridine-6-carboxamide] the value was 11 nM; for `CC(C)n1nc(-c2ccnc(N(C)C)c2)c2ncc(C(=O)NC3(C)CS(=O)(=O)C3)cc21` [Example 125, 3-(2-(dimethylamino)pyridin-4-yl)-1-isopropyl-N-(3-methyl-1,1-dioxidothietan-3-yl)-1H-pyrazolo[4,3-b]pyridine-6-carboxamide], over 1000 nM; for `CC(C)n1nc(-c2cccc(OC(F)F)c2)c2c(C#N)cc(C(=O)NC3(C)CS(=O)(=O)C3)cc21` [Example 91, 4-cyano-3-(3-(difluoromethoxy)phenyl)-1-isopropyl-N-(3-methyl-1,1-dioxidothietan-3-yl)-1H-indazole-6-carboxamide], 2 nM. For `O=C(NCC1CC(F)(F)C1)c1cnc2c(-c3cccc(OC(F)F)c3)cn(-c3ncc(F)cn3)c2c1` [Example 19, N-((3,3-difluorocyclobutyl)methyl)-3-(3-(difluoromethoxy)phenyl)-1-(5-fluoropyrimidin-2-yl)-1H-pyrrolo[3,2-b]pyridine-6-carboxamide] the value was over 1000 nM; for `CC1(NC(=O)c2cnc3c(-c4cncc(OC(F)F)c4)nn(C4CCOCC4)c3c2)CS(=O)(=O)C1` [Example 64, 3-[5-(difluoromethoxy)-3-pyridyl]-N-(3-methyl-1,1-dioxo-thietan-3-yl)-1-tetrahydropyran-4-yl-pyrazolo[4,3-b]pyridine-6-carboxamide], 177 nM.

As for `Cn1nccc1-c1nn(-c2ccc(F)cc2)c2cc(C(=O)N[C@@]3(C)CCS(=O)(=O)C3)cnc12` [Example 2, (S)-1-(4-fluorophenyl)-N-(3-methyl-1,1-dioxidotetrahydrothiophen-3-yl)-3-(1-methyl-1H-pyrazol-5-yl)-1H-pyrazolo[4,3-b]pyridine-6-carboxamide], the half-maximal inhibitory concentration (IC50) is 142 nM.

For `CC(C)n1nc(-c2cncc(OC(F)F)c2)c2ncc(C(=O)N[C@H]3CCCC[C@@H]3O)cc21` [Example 99, 3-[5-(difluoromethoxy)-3-pyridyl]-N-[(1S,2S)-2-hydroxycyclohexyl]-1-isopropyl-pyrazolo[4,3-b]pyridine-6-carboxamide], the concentration for half-maximal inhibition (IC50) stood at 52 nM.

Turning to `CCn1nc(-c2cccc(OC(F)F)c2)c2ncc(C(=O)NC3(C)CS(=O)(=O)C3)cc21` [Example 27, 3-(3-(difluoromethoxy)phenyl)-1-ethyl-N-(3-methyl-1,1-dioxidothietan-3-yl)-1H-pyrazolo[4,3-b]pyridine-6-carboxamide], the IC50 came out at 111 nM.

For the compound `CN(C)[C@H]1COC[C@@H]1NC(=O)c1cnc2c(-c3cccc(OC(F)F)c3)cn(-c3ncc(F)cn3)c2c1` [Example 8, 3-(3-(difluoromethoxy)phenyl)-N-((3R,4R)-4-(dimethylamino)tetrahydrofuran-3-yl)-1-(5-fluoropyrimidin-2-yl)-1H-pyrrolo[3,2-b]pyridine-6-carboxamide], half-maximal inhibition (IC50) required 119 nM. The figure for `C[C@]1(NC(=O)c2cc3c(cn2)c(-c2ccccc2Cl)cn3-c2ccc(F)cc2)CCS(=O)(=O)C1` [Example 14, (S)-3-(2-chlorophenyl)-1-(4-fluorophenyl)-N-(3-methyl-1,1-dioxidotetrahydrothiophen-3-yl)-1H-pyrrolo[3,2-c]pyridine-6-carboxamide] is 292 nM.

(Values after patent US20240059700A1, “NOVEL DIACYLGLYCERIDE O-ACYLTRANSFERASE 2 INHIBITORS” (Merck Sharp & Dohme LLC, priority 2020, published 2024).)
